The text below walks through data of patent US9193729B2, “Inhibiting transient receptor potential ion channel TRPA1” (Cubist Pharmaceuticals, Inc., priority 2011, dated 2015).

A value given as a limit tells only on which side of the number the result lay.

One series addresses hTRPV1 (Homo sapiens, UniProt Q8NER1). Put plainly: Patch clamp selectivity, hTRPV1. It is filed as cell-based. As to conditions: hTRPV1 vs TRPA1. As for the experimental part:
(§1) Data for TRPA1 inhibition and the selectivity of TRPA1 inhibition was obtained by this method for the compound of Formula (Ia) and included in Table 1 and Table 2. All currents were recorded in whole-cell configuration using EPC-9 and EPC-10 amplifiers and Patchmaster software (HEKA). […] The standard pipette solution consisted of 140 mM CsAsp, 10 mM EGTA, 10 mM HEPES, 2.27 mM MgCl2, 1.91 mM CaCl2, 4 mM MgATP, and 0.1-0.3 mM Na2GTP, with pH adjusted to 7.2 with CsOH. In addition, a solution containing 145 mM CsCl, 10 mM HEPES, 10 mM EGTA and 1 mM MgCl2 (pH 7.2 adjusted with CsOH) can be used. The standard bath solution contained 150 mM NaCl, 10 mM HEPES, 10 mM glucose, 4.5 mM KCl, 1 mM EGTA, 3 mM MgCl2, with pH adjusted to 7.4 with NaOH. In some instances, 2 mM CaCl2 was added in place of EGTA and the concentration of MgCl2 was reduced to 1 mM.
(§2) Data were collected either by continuous recordings at −60 mV or by applying voltage ramps from a holding potential of 0 mV every 4 s. […] Inward and outward currents were analyzed from the ramps at −80 and 80 mV, respectively. […]
(§3) Solutions were switched using a gravity-fed continuous focal perfusion system. […] Temperatures were confirmed using a thermistor (Warner Instruments, TA-29), with temperatures at the recorded cell estimated to be within +/−2° C. of those reported. […]

The subject of another series is healthy male volunteers. Briefly: Single ascending dose Phase 1A study. The series is classed as in vivo, human. Particulars: 6 ascending single doses, placebo-controlled. The source says:
A randomized, double-blind, placebo-controlled, cross-over, single dose, safety, tolerability and pharmacokinetic study of 6 ascending doses of the compound of Formula (Ia) was undertaken in two cohorts of healthy male volunteers. A total of eighteen eligible healthy mail volunteers were recruited utilizing an alternating panel design. The first cohort of nine subjects (Cohort 1) was sequentially enrolled into 3 of 6 dosing periods (Dose Levels 1, 3, and 5). The remaining cohort of nine subjects (Cohort 2) was enrolled in the other 3 dosing periods (Dose Levels 2, 4, and 6). Within each dosing period, subjects were randomly assigned 2:1 to the compound of Formula (I) (n=6) or placebo (n=3). Each subject received one dose of placebo and two different doses of the compound of Formula (I) over the course of their participation in all three dosing periods. Subjects were equally randomized to one of 3 possible sequences, namely 1) placebo, active, active, 2) active, placebo, active, and 3) active, active, placebo.

The target in the next series is hTRPM8 (Homo sapiens, UniProt Q7Z2W7). Briefly: Patch clamp selectivity, hTRPM8. It is filed as cell-based. Particulars: hTRPM8 vs TRPA1. The procedure: as §1, §2, §3
Sequence of hTRPM8 (Q7Z2W7 whole entry): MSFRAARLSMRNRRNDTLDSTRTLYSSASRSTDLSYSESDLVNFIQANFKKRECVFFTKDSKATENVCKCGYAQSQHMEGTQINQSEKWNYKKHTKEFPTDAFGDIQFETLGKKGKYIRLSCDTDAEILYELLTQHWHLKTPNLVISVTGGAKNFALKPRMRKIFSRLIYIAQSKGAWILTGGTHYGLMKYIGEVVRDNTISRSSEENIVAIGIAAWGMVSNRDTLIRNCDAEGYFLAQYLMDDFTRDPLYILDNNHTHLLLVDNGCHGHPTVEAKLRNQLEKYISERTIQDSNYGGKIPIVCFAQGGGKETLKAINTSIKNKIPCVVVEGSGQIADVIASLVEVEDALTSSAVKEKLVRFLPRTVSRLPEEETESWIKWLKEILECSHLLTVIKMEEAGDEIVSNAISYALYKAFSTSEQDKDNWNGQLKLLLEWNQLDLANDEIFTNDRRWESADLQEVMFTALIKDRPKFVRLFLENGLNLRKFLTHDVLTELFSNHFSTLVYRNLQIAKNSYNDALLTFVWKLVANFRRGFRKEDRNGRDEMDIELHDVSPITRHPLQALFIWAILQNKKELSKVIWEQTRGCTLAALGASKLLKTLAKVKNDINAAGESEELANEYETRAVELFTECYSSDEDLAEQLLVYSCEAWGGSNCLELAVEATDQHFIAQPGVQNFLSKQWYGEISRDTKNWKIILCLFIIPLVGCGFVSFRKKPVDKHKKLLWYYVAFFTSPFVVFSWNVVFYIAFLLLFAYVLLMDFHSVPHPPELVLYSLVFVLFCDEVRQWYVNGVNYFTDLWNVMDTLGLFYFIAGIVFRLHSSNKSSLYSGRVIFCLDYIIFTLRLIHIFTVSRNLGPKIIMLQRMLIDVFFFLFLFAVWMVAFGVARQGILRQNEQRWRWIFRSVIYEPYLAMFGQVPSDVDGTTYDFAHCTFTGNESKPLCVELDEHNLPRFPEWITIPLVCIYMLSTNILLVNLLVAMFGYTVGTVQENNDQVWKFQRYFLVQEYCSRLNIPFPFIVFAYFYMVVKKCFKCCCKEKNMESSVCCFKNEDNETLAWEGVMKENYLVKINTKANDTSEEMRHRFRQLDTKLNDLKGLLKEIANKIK
A further series concerns the target T1, hTRPV3 (Homo sapiens, UniProt Q8NET8).
T1 sequence (Q8NET8 1-790): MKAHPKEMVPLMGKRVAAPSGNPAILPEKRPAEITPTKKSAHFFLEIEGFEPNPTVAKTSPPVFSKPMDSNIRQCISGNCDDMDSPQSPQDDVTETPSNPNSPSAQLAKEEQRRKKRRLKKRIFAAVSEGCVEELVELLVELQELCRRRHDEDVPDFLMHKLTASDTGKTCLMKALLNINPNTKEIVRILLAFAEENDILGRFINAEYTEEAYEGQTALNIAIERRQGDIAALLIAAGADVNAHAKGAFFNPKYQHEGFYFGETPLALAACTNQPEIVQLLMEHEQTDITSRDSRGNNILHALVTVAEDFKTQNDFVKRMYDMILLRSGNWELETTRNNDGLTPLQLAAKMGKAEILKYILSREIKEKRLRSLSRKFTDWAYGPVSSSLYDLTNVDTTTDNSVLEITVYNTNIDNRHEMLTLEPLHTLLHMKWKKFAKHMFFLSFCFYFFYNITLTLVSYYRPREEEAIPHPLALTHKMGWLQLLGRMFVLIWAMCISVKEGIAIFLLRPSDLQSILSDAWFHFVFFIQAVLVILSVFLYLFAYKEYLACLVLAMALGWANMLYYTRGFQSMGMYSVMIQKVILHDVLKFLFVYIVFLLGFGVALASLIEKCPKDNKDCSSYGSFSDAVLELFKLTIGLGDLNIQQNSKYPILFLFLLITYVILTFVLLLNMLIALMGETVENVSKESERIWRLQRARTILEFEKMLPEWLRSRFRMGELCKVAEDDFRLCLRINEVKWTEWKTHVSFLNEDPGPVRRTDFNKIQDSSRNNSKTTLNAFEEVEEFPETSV
Briefly: Patch clamp selectivity, hTRPV3. It is filed as cell-based. As to conditions: hTRPV3 vs TRPA1. As for the experimental part: as §1, §2, §3

Sequence of hTRPV1 (Q8NER1 whole entry): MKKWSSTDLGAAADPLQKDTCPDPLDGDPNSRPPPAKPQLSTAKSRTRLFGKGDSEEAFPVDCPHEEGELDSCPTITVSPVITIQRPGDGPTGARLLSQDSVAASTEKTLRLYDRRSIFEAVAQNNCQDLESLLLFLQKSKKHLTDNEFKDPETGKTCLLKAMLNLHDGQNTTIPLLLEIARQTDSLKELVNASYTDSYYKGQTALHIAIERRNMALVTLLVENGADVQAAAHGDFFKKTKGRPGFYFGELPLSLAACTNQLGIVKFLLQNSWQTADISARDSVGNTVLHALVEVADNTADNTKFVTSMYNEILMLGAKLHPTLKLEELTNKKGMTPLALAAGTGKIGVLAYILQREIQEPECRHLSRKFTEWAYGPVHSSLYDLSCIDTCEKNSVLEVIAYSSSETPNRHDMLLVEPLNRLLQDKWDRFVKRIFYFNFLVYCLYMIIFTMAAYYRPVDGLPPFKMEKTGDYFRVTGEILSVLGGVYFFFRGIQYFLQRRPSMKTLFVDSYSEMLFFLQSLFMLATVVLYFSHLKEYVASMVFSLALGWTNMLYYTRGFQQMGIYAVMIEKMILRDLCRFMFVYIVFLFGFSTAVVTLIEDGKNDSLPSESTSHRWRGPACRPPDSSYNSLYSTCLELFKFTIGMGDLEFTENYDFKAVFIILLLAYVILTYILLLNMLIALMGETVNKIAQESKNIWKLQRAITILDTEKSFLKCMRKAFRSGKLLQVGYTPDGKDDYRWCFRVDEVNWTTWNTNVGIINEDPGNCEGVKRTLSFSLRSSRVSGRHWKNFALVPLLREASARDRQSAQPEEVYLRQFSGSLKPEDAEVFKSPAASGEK

With `C[C@H]1CCCN1c1ncc(-c2cccc(NC(=O)Cn3cnc4c3c(=O)n(C)c(=O)n4C)n2)cn1` [Formula (Ia)], the figures for the “Fold Selectivity Compared to TRPA1” value on hTRPV1, at hTRPM8 and at hTRPV3 were over 100 Fold, about 200 Fold and over 300 Fold, respectively. Further, the safety signals result with healthy male volunteers is reported as “no safety signals seen that were attributable to the compound”.
